Reference: publication PMC12015663 (Cancer Research Communications, 2025)
Read-outs that look alike come from different tables or passages of the source. Values belong to the compound of their own block, whether it stands above or below them.

Assays:
[1] = system: pERK in NCI-H1838 (NF1-LOF); experiment: pERK modulation in vitro, MSD ELISA, NCI-H1838; conditions: for extent of the pERK increase: NCI-H1838, compared across type II RAF inhibitors; for EC50: read-out: pERK EC50
Description: (§1) MSD ELISA experiments were conducted by WuXi AppTec on whole cell lysates and generated using the Phospho/Total ERK1/2 Assay Whole Cell Lysate Kit (MSD, cat. no. K15107D) according to the manufacturer’s protocol.
(§2) In vitro modulation of pERK levels was assessed in NF1-LOF and BRAF V600E tumor cell lines by MSD ELISA.
(§3) pERK levels were assessed 1 hour after treatment with each of the test compounds or control. Preparation of 96-well plates for MSD ELISA was performed according to the manufacturer’s instructions using the Phospho/Total ERK1/2 Assay Whole Cell Lysate Kit (MSD, cat no. K15107D). The plates were read using the MSD reader (MESO QuickPlex SQ120, cat. no. SQ120, RRID: SCR_020304). The A375 BRAF V600E tumor cell line served as a positive control.
(§4) The percent phosphoprotein in a sample was calculated using MSD phospho-/total multiplex phosphoprotein assays, as well as the following formula: anti-total and anti-phospho assay in the same well: % phosphoprotein = [(2 × phospho signal)/(phospho signal + total signal)] × 100. The ratio of pERK to total ERK was normalized to the ratio of the DMSO control group. EC50 pERK values and concentration response curves were generated using GraphPad Prism software analysis (RRID: SCR_002798).

A375 = experiment: CellTiter-Glo cell viability assay, A375; conditions: read-out: Proliferation EC50
Description: (§5) Next, 2 μL of each concentration was added to 198 μL assay medium (PBS) to create a 10× stock. […] MSD ELISA experiments were conducted by WuXi AppTec on whole cell lysates and generated using the Phospho/Total ERK1/2 Assay Whole Cell Lysate Kit (MSD, cat. no. K15107D) according to the manufacturer’s protocol.
(§6) The in vitro anti-proliferation effect of each of the test compounds was assessed in NF1-LOF and BRAF V600E tumor cell lines cultured as a monolayer using the CellTiter-Glo (CTG) cell viability assay. Cell culture experiments were performed with duplicate wells. Cell concentrations were adjusted for cell density (seeding density of 5,000 for sNF96.2 and MeWo; 6,000 for NCI-H1838; and 2,500 for A375) prior to plating onto a 96-well assay plate and incubated overnight at 37°C with 5% CO2, 95% air, and 100% relative humidity.
(§7) Anti-proliferative activity was assessed after 72 hours of treatment with the test compound or control. […] DMSO was also applied as a control on days 2 and 3. The final DMSO concentration for all test compounds and vehicle control was 0.1%. The A375 BRAF V600E tumor cell line served as a positive control. Preparation of 96-well plates for CTG assays was performed according to the manufacturer’s instructions using the CTG Luminescent Cell Viability Assay Kit (Promega, RRID: SCR_006724, cat. no. G7573). Luminescence was measured on day 3 using the 2104 EnVision Multilabel Reader (PerkinElmer).
(§8) The inhibition rate of the tested compounds was determined using the following formula: inhibition rate (%) = (1 − [relative luminescence unit (RLU) compound − RLU blank])/(RLU control − RLU blank) × 100. EC50 proliferation values were generated using GraphPad Prism software analysis.

[2] = system: pERK in sNF96.2 (NF1-LOF); experiment: pERK modulation in vitro, MSD ELISA, sNF96.2; conditions: read-out: pERK EC50
Description: as §1, §2, §3, §4

CRAF wt = system: CRAF wt; set-up: method as in earlier work; conditions: full length human construct; GST-tagged CRAF wild type, 50 nmol/L biotinylated MEK, ATP 10 μmol/L; 41 (TAK-632: ref 26-28); cited from earlier work
MeWo = experiment: CellTiter-Glo cell viability assay, MeWo
Description: as §5, §6, §7, §8

NCI-H1838 = experiment: CellTiter-Glo cell viability assay, NCI-H1838; conditions: read-out: Proliferation EC50
Description: as §5, §6, §7, §8

pERK in MeWo (NF1-LOF) = experiment: pERK modulation in vitro, MSD ELISA, MeWo
Description: as §1, §2, §3, §4

[3] = system: pERK in A375 (BRAF V600E); experiment: pERK modulation in vitro, MSD ELISA, A375; format: cell-based; conditions: A375, BRAF V600E, melanoma, 1 hour after treatment, n = 2, read-out: pERK EC50
Description: as §1, §2, §3, §4

sNF96.2 = experiment: CellTiter-Glo cell viability assay, sNF96.2; conditions: read-out: Proliferation EC50
Description: as §5, §6, §7, §8

BRAF wt = system: BRAF wt; set-up: method as in earlier work; conditions: full length human construct; 0.125 nmol/L GST-tagged BRAF wild type, 12.5 nmol/L biotinylated MEK, ATP 50 μmol/L; 41 (TAK-632: ref 26-28); cited from earlier work
ARAF = biological target: T1, ARAF (Homo sapiens, UniProt P10398); experiment: Time-resolved fluorescence energy transfer binding assay (KINETICfinder); conditions: partial length active recombinant human ARAF at 5 nmol/L; 60 minutes, room temperature; singlicate
T1 sequence (P10398 310-570 limits assumed): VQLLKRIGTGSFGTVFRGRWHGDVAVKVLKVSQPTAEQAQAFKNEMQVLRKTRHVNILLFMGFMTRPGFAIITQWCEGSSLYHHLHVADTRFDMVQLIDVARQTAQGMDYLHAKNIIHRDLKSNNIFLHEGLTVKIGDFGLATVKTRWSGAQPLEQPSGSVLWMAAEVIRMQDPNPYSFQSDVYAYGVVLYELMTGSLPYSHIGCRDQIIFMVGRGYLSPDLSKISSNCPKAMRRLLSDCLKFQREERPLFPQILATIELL
Description: Compounds were mixed with assay buffer (50 mmol/L HEPES pH 7.5, 1 mmol/L Ethyleneglycol-bis-(aminoethyl-ether)-N,N,N',N'-tetraacetic acid, 0.01% Brij-35, 10 mmol/L MgCl2, and 2 mmol/L Dithiothreitol), and 5 μL of this solution was transferred to the assay plate. The final concentration of DMSO in the assay was 1%. Hundred percent DMSO was used as a high and low control. Assays were run in singlicate with a reference compound included in each assay to evaluate reproducibility and assay quality.
Wells containing the fluorescent probe, antibody, and target (ARAF) were used as the high reaction control (total binding) and wells containing the probe and antibody were used as the low reaction control (nonspecific binding). […] Next, the substrate antibody solution was added, and the reaction was incubated for 60 minutes at room temperature. Percentage inhibition of each well was calculated using the following formula: % inhibition = 100 − [compound emission ratio (ER) − low control ER/high control ER − low control ER] × 100. Results were fitted to a concentration response curve with a variable slope and constraints of 0 and 100 for bottom and top, respectively, to generate the IC50 values.

NF1-LOF tumor cell lines = experiment: CellTiter-Glo cell viability assay, statement on all three NF1-LOF tumor cell lines; conditions: CTG 72 hours
Description: as §5, §6
Anti-proliferative activity was assessed after 72 hours of treatment with the test compound or control. […] DMSO was also applied as a control on days 2 and 3. The final DMSO concentration for all test compounds and vehicle control was 0.1%. […] Luminescence was measured on day 3 using the 2104 EnVision Multilabel Reader (PerkinElmer).
The inhibition rate of the tested compounds was determined using the following formula: inhibition rate (%) = (1 − [relative luminescence unit (RLU) compound − RLU blank])/(RLU control − RLU blank) × 100. […]

SMILES: O=C1CCc2c(Oc3ccc4c(c3)[C@@H]3[C@H](O4)[C@H]3c3nc4ccc(C(F)(F)F)cc4[nH]3)ccnc2N1 [BGB-283]
extent of the pERK increase ([1]; 1 hour after treatment): higher extent

SMILES: Cc1ccc2c(Nc3cccc(Cl)c3F)nccc2c1NC(=O)c1csc2c(N)ncnc12 [Belvarafenib]
extent of the pERK increase ([1]; 1 hour after treatment): lesser extent

SMILES: Cc1ccc(NC(=O)c2ccnc(C(F)(F)F)c2)cc1-c1cc(OCCO)nc(N2CCOCC2)c1 [LXH254]
extent of the pERK increase ([1]; 1 hour after treatment): lesser extent

SMILES: N#Cc1c(Oc2ccc(F)c(NC(=O)Cc3cccc(C(F)(F)F)c3)c2)ccc2nc(NC(=O)C3CC3)sc12 [TAK-632]
extent of the pERK increase ([1]; 1 hour after treatment): lesser extent
EC50 ([1]; NCI-H1838, NF1-LOF, lung, 1 hour after treatment, n = 1): 1250 nM
EC50 (A375; A375, CTG 72 hours after treatment, repeated application of tovorafenib): 70 nM
EC50 ([2]; sNF96.2, NF1-LOF, MPNST, 1 hour after treatment, n = 2): 750 nM
IC50 (CRAF wt): 1.4 nM
EC50 (MeWo; read-out: Proliferation EC50, CTG 72 hours after treatment, repeated application of tovorafenib): 4100 nM
EC50 (NCI-H1838; NCI-H1838, CTG 72 hours after treatment, n = 1, repeated application of tovorafenib): 3300 nM
EC50 (pERK in MeWo (NF1-LOF); read-out: pERK EC50, NF1-LOF, melanoma, 1 hour after treatment, n = 2): 1600 nM
EC50 [3]: 30 nM
EC50 (sNF96.2; sNF96.2, CTG 72 hours after treatment, repeated application of tovorafenib): 2400 nM
IC50 (BRAF wt): 8.3 nM
IC50 (ARAF): 215 nM

EC50 ([1]; Homo sapiens, NCI-H1838, 1 h): > 10000 nM
EC50 (A375; Homo sapiens, A-375, 72 h): 90 nM
EC50 ([2]; SNF96.2, 1 h): > 10000 nM
EC50 (NCI-H1838; Homo sapiens, NCI-H1838, 72 h): > 10000 nM
EC50 (pERK in MeWo (NF1-LOF); Homo sapiens, 1 h, read-out: pERK EC50): > 10000 nM
EC50 ([3]; Homo sapiens, A-375): 20 nM
SMILES: CCCS(=O)(=O)Nc1ccc(F)c(C(=O)c2c[nH]c3ncc(-c4ccc(Cl)cc4)cc23)c1F [Vemurafenib]
sensitivity of cell lines (NF1-LOF tumor cell lines): insensitive
EC50 (MeWo; Homo sapiens, 72 h, read-out: Proliferation EC50): 4500 nM
EC50 (sNF96.2; SNF96.2, 72 h): 6000 nM
